Patent US20020137154A1, “Methods for improving cell growth and alcohol production during fermentation” (priority 2000, published 2002)

Tested on: recombinant Escherichia coli KO11
Assay: Batch fermentation of E. coli KO11 in Luria broth and xylose with nutrient additives: ethanol production and cell growth
Format: cell-based
Conditions: LB+xylose
Procedure: Two types of media were tested: 1% CSL and Luria broth (LB). Each contained 97 g of either xylose or glucose per liter. Luria Broth consists of, per liter: 10 g Difco® Tryptone, 5 g Difco® Yeast Extract and 5 g NaCl. The 1% CSL medium consists of Corn Steep Liquor (1% w/v) plus mineral salts (mineral salts per liter: 1 g of KH2PO4. 0.5 g of K2HPO4, 3.1 g of (NH4)2SO4, 0.4 g of MgCl2·6H2), and 20 mg FeCl3·6H2O).
Luria Broth was prepared by autoclaving a 2× nutrient stock containing, per liter: 20 g Difco® Tryptone, 10 g Difo® Yeast Extract, and 10 g NaCl. Sugars (xylose or glucose) were autoclaved separately. A 1% CSL medium was prepared as follows: Commercial Corn Steep Liquor (CSL; 50% dry weight/50% water) was diluted with tap water to make a 20X stock containing 100 g dry weight of Corn Steep Liquor/L and was adjusted to pH 7.2 with NaOH (50%). After sterilization by autoclaving, the 20X CSL stock was clarified by centrifugation at 5000×g for 10 minutes. Magnesium was added as a 100× stock solution (40 g/L MgCl2·6H2O). Iron was added as a 1000× stock solution made by dissolving 20 g FeCl3·6H2O in 175 mL of HCl and adjusting to 1 L with sterile water. Nitrogen, sulfur and phosphorus were added using a 20× stock solution containing the following (per liter): 20 g of KH2PO4, 10 g of K2HPO4 and 62 g of (NH4)2SO4. Stock solutions containing minerals were sterilized separately by autoclaving. Final media was prepared by adding 750 mL of water to 1 L bottle containing 100 g of xylose or glucose.
Inocula were grown in same media used for fermentation and were prepared as follows. Three colonies from a fresh plate were used to inoculate seed cultures: 250-mL flask containing 100 mL medium. These cultures were grown with agitation (120 rpm) for 12-16 hours at 35° C. to a final OD550nm of approximately 2.0-2.5. Cells were harvested by centrifugation at 5000×g for 5 minutes, and resuspended in fresh media to an OD550nm of 0.1. The resulting suspension was distributed into 500-mL beakers containing 345 ml each of fermentation medium. Acetaldehyde was added as indicated. Batch fermentations (35° C., 100 rpm) were maintained at pH 6.5 by the automatic addition of 2N KOH. Cell mass, ethanol, and base addition (2N KOH) were recorded during 96 hours of incubation.
Equivalent amounts of distilled water were added instead of the acetaldehyde in control experiments.
Additives (e.g., as listed in Table 1) were dissolved in 5 mL di-H2O. Solutions with pH lower than 5 were neutralized to pH 6.5 with 2N KOH. Nutritional supplements were then filter-sterilized (0.45 μm filter disk) directly into the fermentation vessel containing the culture. The final concentration of all additives in the culture medium was 2 g/L unless otherwise indicated.
Cell mass was estimated by measuring OD550nm using Baush & Lomb® Spectronic 70 spectrophotometer. […] Ethanol was measured by gas chromatography using a Varian® 3400 CX gas chromatograph with 1-propanol as an internal standard.
Tables 1, 3, and 5 show time to completion of fermentation, ethanol production, and volumetric productivity of the fermentation for all concentrations of the compound and the control. Maximum ethanol production is shown in grams/liter (g/L). The ethanol yield is shown in grams of ethanol/grams of added sugar. Maximum volumetric productivity is shown in grams ethanol/(liter)(hour). The average productivity is calculated form the start of fermentation to the completion of fermentation is grams ethanol/(liter)hour).
Tables 2, 4, and 6 show the initial growth of the cells (OD taken after the first 24 hours of fermentation) and the maximum cell density (the time which culture reaches the maximum OD value).
Acetaldehyde was added to the fermentation medium at five different concentrations and time points. […] Where two additions are indicated, the first volume was added at the start of fermentation and the second was added after 8 hours of fermentation.

## CC=O [Acetaldehyde, acetaldehyde]
0.25 g/L at start
  Ethanol Production Maximum: 43.80 g/L
  Ethanol Production Maximum % Control: 101.68%
  Ethanol yield: 0.451 grams of ethanol/grams of added sugar
  Initial Growth (OD at 24 h) % Control: 110.79%
  Initial Growth (OD at 24 h) OD: 11.07 OD
  Maximum Cell Density % Control: 100.20%
  Maximum Cell Density OD: 11.07 OD
  Maximum Cell Density Time: 24 h
  Time to completion: 48 h
  Volumetric Productivity Average: 0.913 grams ethanol/(liter)(hour)
  Volumetric Productivity Average % Control: 101.68%
  Volumetric Productivity Maximum: 1.352 grams ethanol/(liter)(hour)
  Volumetric Productivity Maximum % Control: 117.36%
0.5 + 0.25 g/L (start, 8 h)
  Ethanol Production Maximum: 41.40 g/L
  Ethanol Production Maximum % Control: 96.11%
  Ethanol yield: 0.426 grams of ethanol/grams of added sugar
  Initial Growth (OD at 24 h) % Control: 99.02%
  Initial Growth (OD at 24 h) OD: 9.89 OD
  Maximum Cell Density % Control: 97.92%
  Maximum Cell Density OD: 10.81 OD
  Maximum Cell Density Time: 48 h
  Time to completion: 48 h
  Volumetric Productivity Average: 0.863 grams ethanol/(liter)(hour)
  Volumetric Productivity Average % Control: 96.11%
  Volumetric Productivity Maximum: 0.904 grams ethanol/(liter)(hour)
  Volumetric Productivity Maximum % Control: 78.52%
0.5 + 0.5 g/L (start, 8 h)
  Ethanol Production Maximum: 41.64 g/L
  Ethanol Production Maximum % Control: 96.65%
  Ethanol yield: 0.429 grams of ethanol/grams of added sugar
  Initial Growth (OD at 24 h) % Control: 106.98%
  Initial Growth (OD at 24 h) OD: 10.68 OD
  Maximum Cell Density % Control: 106.68%
  Maximum Cell Density OD: 11.78 OD
  Maximum Cell Density Time: 48 h
  Time to completion: 48 h
  Volumetric Productivity Average: 0.867 grams ethanol/(liter)(hour)
  Volumetric Productivity Average % Control: 96.65%
  Volumetric Productivity Maximum: 0.890 grams ethanol/(liter)(hour)
  Volumetric Productivity Maximum % Control: 77.26%
0.5 g/L at start
  Ethanol Production Maximum: 42.59 g/L
  Ethanol Production Maximum % Control: 98.88%
  Ethanol yield: 0.438 grams of ethanol/grams of added sugar
  Initial Growth (OD at 24 h) % Control: 108.77%
  Initial Growth (OD at 24 h) OD: 10.86 OD
  Maximum Cell Density % Control: 107.97%
  Maximum Cell Density OD: 11.92 OD
  Maximum Cell Density Time: 48 h
  Time to completion: 48 h
  Volumetric Productivity Average: 0.887 grams ethanol/(liter)(hour)
  Volumetric Productivity Average % Control: 98.88%
  Volumetric Productivity Maximum: 1.027 grams ethanol/(liter)(hour)
  Volumetric Productivity Maximum % Control: 89.20%
0.5 g/L at the start
  ethanol production as compared to the control: highest amount of ethanol production
  initial growth and maximum cell density as compared to the control: greatest initial growth and maximum cell density
0.75 g/L at start
  Ethanol Production Maximum: 42.65 g/L
  Ethanol Production Maximum % Control: 99.00%
  Ethanol yield: 0.439 grams of ethanol/grams of added sugar
  Initial Growth (OD at 24 h) % Control: 105.54%
  Initial Growth (OD at 24 h) OD: 10.54 OD
  Maximum Cell Density % Control: 110.94%
  Maximum Cell Density OD: 12.25 OD
  Maximum Cell Density Time: 48 h
  Time to completion: 48 h
  Volumetric Productivity Average: 0.889 grams ethanol/(liter)(hour)
  Volumetric Productivity Average % Control: 99.00%
  Volumetric Productivity Maximum: 0.916 grams ethanol/(liter)(hour)
  Volumetric Productivity Maximum % Control: 79.50%
